Measurements as given in patent US11169138B2, “Nanopores with internal protein adaptors” (priority 2015, dated 2021).
“Also recorded” adds a separate entry of the source. Like-named read-outs stand apart in the source and are kept apart here.

Legend:
DHFR = target: T1, DHFR (Escherichia coli, UniProt P0ABQ4, C152S/C85A); assay: Ligand effects on DHFR (untagged construct) blockades of ClyA-AS nanopore; assay type: binding, E. coli; details: 20 μM NADPH cis after 400 nM MTX, −90 mV
T1 construct: Met-Ala-Ser-Ala (N); made in house; host or cells: E. cloni EXPRESS BL21(DE3) E. coli
T1 sequence (P0ABQ4 1-159 C85A/C152S): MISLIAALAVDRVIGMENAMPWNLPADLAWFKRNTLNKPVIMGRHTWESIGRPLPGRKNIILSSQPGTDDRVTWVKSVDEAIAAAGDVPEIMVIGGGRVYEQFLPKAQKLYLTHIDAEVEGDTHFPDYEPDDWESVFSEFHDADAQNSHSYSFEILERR

DHFRtag:MTX = target: T2, DHFRtag:MTX (Escherichia coli, UniProt P0ABQ4, C152S/C85A); assay: Ligand binding to DHFRtag:MTX complex confined inside ClyA-AS nanopore, single-channel recording; set-up: species or system E. coli
T2 construct: Met-Ala-Ser-Ala (N); made in house; host or cells: E. cloni EXPRESS BL21(DE3) E. coli
T2 sequence (P0ABQ4 1-159 C85A/C152S): T1 sequence (P0ABQ4 1-159 C85A/C152S)
Protocol: (§1) The applied potential refers to the potential of the trans electrode. ClyA-AS nanopores were inserted into lipid bilayers from the cis compartment, which was connected to the ground electrode. The two compartments were separated by a 25 μm thick polytetrafluoroethylene film (Goodfellow Cambridge Limited) containing an orifice of ˜100 μm in diameter. The aperture was pretreated with ˜5 μl of 10% hexadecane in pentane and a bilayer was formed by the addition of ˜10 μL of 1,2-diphytanoyl-sn-glycero-3-phosphocholine (DPhPC) in pentane (10 mg/mL) to both electrophysiology chambers. Typically, the addition of 0.01-0.1 ng of oligomeric ClyA-AS to the cis compartment (0.5 mL) was sufficient to obtain a single channel. […] Electrical recordings were carried out in 150 mM NaCl, 15 mM Tris.HCl pH 8.0 (AlkB experiments) or 150 mM NaCl, 15 mM Tris.HCl pH 7.5 (DHFR experiments). The temperature of the recording chamber was maintained at 28° C. by water circulating through a metal case in direct contact with the bottom and sides of the chamber.
(§2) Electrical signals from planar bilayer recordings were amplified using an Axopatch 200B patch clamp amplifier (Axon Instruments) and digitized with a Digidata 1440 A/D converter (Axon Instruments). Data were recorded by using the Clampex 10.4 software (Molecular Devices) and the subsequent analysis was carried out with the Clampfit software (Molecular Devices). Electrical recordings were performed in 150 mM NaCl, 15 mM Tris.HCl pH 8.0 (AlkB) or pH 7.5 (DHFR) by applying a 2 kHz low-pass Bessel filter and a 10 kHz sampling rate. For further analysis traces were filtered digitally with a Bessel (8-pole) low-pass filter with a 50 Hz cut-off. Residual current values (IRES%) were calculated from blocked pore current values (IB) and open pore current values (IO) as IRES %=100*IB/IO. IB and IO were determined from Gaussian fits to all point current histograms (0.05 pA bin size) for at least 15 individual protein blockades. ΔIRES % values were calculated from IRES % using propagation of errors.
(§3) Current transitions from level 1 were analyzed with the “single-channel search” function in Clampfit. The detection threshold to collect the ligand-induced events for AlkB was set to 4 pA and events shorter than 10 ms were ignored. […] The resulting event dwell times (toff) and the time between events (ton) were binned together as cumulative distributions and fitted to a single exponential to retrieve the ligand-induced lifetimes (τoff) and the ligand-induced event frequencies (f=1/τon). The process of event collection was monitored manually. For AlkB, final values of τon and τoff were based on average values derived from at least 3 single channel experiments at each concentration. Each experiment analysed more than 8 AlkB blockades. At the low ligand concentrations (0.2 mM) about 100 ligand-binding events were measured. Otherwise more than 150 events were collected. […] Subsequently, the ton values were binned together as cumulative distributions and fitted to a single exponential fit to retrieve characteristic τon values. The values for koff represented in FIG. 2b and FIG. 4b were determined by taking the average±standard deviations of 1/toff of at least 3 single channel experiments. The values of the association rate constants (kon) were determined from the slope of the linear regression curves calculated from the dependency of the event frequencies (f=1/τon) on the ligand concentration (OriginLab, FIGS. 2b and 4b). Graphs were made with Origin (OriginLab Corporation) or Clampfit software (Molecular Devices).

[1] = target: T3, AlkB-Fe^++ (E. coli AlkB demethylase) (Escherichia coli, UniProt P05050); assay: Ligand binding to AlkB-Fe++ confined inside ClyA-AS nanopore, single-channel ionic current recording
T3 construct: made in house; host or cells: E. cloni EXPRESS BL21(DE3) E. coli
T3 sequence (P05050 with tags, fused parts or gaps): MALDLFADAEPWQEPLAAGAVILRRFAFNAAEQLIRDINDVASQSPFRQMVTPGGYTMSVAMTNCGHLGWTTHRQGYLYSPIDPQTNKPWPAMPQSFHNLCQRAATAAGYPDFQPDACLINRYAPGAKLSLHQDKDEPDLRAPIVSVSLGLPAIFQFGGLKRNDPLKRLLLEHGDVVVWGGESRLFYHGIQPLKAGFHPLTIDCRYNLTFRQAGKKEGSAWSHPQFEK
Protocol: as §1, §2, §3
9, 872-877; Bleijlevens, B. et al. (2012) Biochem. 2012, 51, 3334-3341].

SBD2 = SBD2 (Lactococcus lactis, UniProt Q9CES5); assay: Glutamine binding to SBD2 inside type I ClyA-AS nanopore
Protocol: The interaction of SBD2 with glutamine was sampled using type I ClyA-AS nanopores at −100 mV. The addition of 72 nM of SBD2 induced a current blockade that fluctuated between two levels I (Ires %=63.6±0.3%, τ=256±5 ms, N=3) and level III (Ires %=61.0±0.2%, τ=145±13 ms, N=3). Protein blockades remained inside the nanopore for 3.9±0.7 s (mean±S.E., n=225). Rarely the current visited an additional ionic current level, Level II (Ires %=62.5±0.3%, τ=18±1 ms, n=856, N=3).
We studied ligand binding by stepwise addition of glutamine at concentrations ranging from 200 nM to 3 μM. […] Binding rates were determined from the lifetimes as described above. Upon linear fitting of the binding rate curve the glutamine binding rates from Level I and III were determined. […] The opening rate constant was determined by the intercept at zero koff=39.7 s^1.

Type I ClyA-AS nanopore = assay: Current blockades from capture of protein adaptors by Type I ClyA-AS nanopore; set-up: species or system S. Typhi; details: ~4 nM cis, −60 mV
Protocol: The applied potential refers to the potential of the trans electrode. ClyA-AS nanopores were inserted into lipid bilayers from the cis compartment, which was connected to the ground electrode. The two compartments were separated by a 25 μm thick polytetrafluoroethylene film (Goodfellow Cambridge Limited) containing an orifice of ˜100 μm in diameter. The aperture was pretreated with ˜5 μl of 10% hexadecane in pentane and a bilayer was formed by the addition of ˜10 μL of 1,2-diphytanoyl-sn-glycero-3-phosphocholine (DPhPC) in pentane (10 mg/mL) to both electrophysiology chambers. […]
as §2, with “Electrical recordings were performed in 150 mM NaCl, 15 mM Tris.HCl pH 8.0 (AlkB) or pH 7.5 (DHFR) by applying a 2 kHz low-pass Bessel filter and a 10 kHz sampling rate. For further analysis traces were filtered digitally with a Bessel (8-pole) low-pass filter with a 50 Hz cut-off.” left out

NC(=O)C1=CN([C@@H]2O[C@H](COP(=O)(O)OP(=O)(O)OC[C@H]3O[C@@H](n4cnc5c(N)ncnc54)[C@H](OP(=O)(O)O)[C@@H]3O)[C@@H](O)[C@H]2O)C=CC1 [NADPH]
effect of NADPH on DHFR blockades in presence of MTX (DHFR): abolished; also recorded: nearly total elimination of the DHFR blockades
enhancement of residual ionic current on NADPH binding (DHFRtag:MTX; DHFR10+/4+/tag:MTX complexes, −90 mV): ~4 pA
DHFRtag:MTX blockades with "long" NADPH events (DHFRtag:MTX; NADPH trans): ~55%
DHFRtag:MTX blockades with "short" NADPH events (DHFRtag:MTX; NADPH trans): Approximately 45%
kon, "long" NADPH events (DHFRtag:MTX; −90 mV): 4.8e+06 ± 1.2e+06 M⁻¹ s⁻¹
kon, "short" NADPH events (DHFRtag:MTX; −90 mV): 5.8e+06 ± 1.2e+06 M⁻¹ s⁻¹
ΔIRES %, "long" NADPH events (DHFRtag:MTX; −90 mV): 2.7±0.7%
ΔIRES %, "short" NADPH events (DHFRtag:MTX; −90 mV): 2.2±0.9%
lifetime of "long" NADPH binding events (DHFRtag:MTX; −90 mV, NADPH trans): > 3 s
lifetime of "short" NADPH binding events (DHFRtag:MTX; −90 mV, NADPH trans): 38.5 ± 0.8 ms
kon −90 mV (DHFRtag:MTX; −90 mV, pH 7.5, 28° C.): 4.8 ± 1.2 × 10^6 s^−1 M^−1
L2B ΔIRES % (first NADPH column as printed) (DHFRtag:MTX; −90 mV, pH 7.5, 28° C., ligand trans): +2.7 ± 0.7%
L1B ΔIRES % (DHFRtag:MTX; −90 mV, pH 7.5, 28° C., ligand trans, from L1): +2.7±0.7%
L2B ΔIRES % (DHFRtag:MTX; −90 mV, pH 7.5, 28° C., ligand trans, from L2): +5.4 ± 1.0%

O=C(O)CNC(=O)C(=O)O [N-OG, N-oxalylglycine]
koff ([1]; pH 8, read-out: koff −60 mV): 0.57 ± 0.1 s⁻¹
kon ([1]; pH 8, read-out: kon −60 mV): 1200 ± 300000 M⁻¹ s⁻¹
L2B ΔIRES % (ligand-induced current enhancement from L2) ([1]; −60 mV, 150 mM NaCl, 15 mM Tris HCl pH 8.0, 28° C., ligand cis): +1.7 ± 1.0%
mean duration (toff) of ligand-induced events ([1]; −60 mV, ligand cis): 1.8 ± 0.4 s

NC(=O)CC[C@H](N)C(=O)O [glutamine]
Kd (SBD2): 1270 ± 140 nM
kon (SBD2; read-out: kon, binding from Level I): 3.7e+07 M⁻¹ s⁻¹
kon (SBD2; read-out: kon, binding from Level II (so in the source)): 3.8e+07 M⁻¹ s⁻¹
koff (opening rate constant) (SBD2; −100 mV, intercept at zero): 39.7 s^1

B1: AlkB-Fe^++ (protein, UniProt P05050 1-216, looked up)
Alpha-ketoglutarate-dependent …: MLDLFADAEPWQEPLAAGAVILRRFAFNAAEQLIRDINDVASQSPFRQMVTPGGYTMSVAMTNCGHLGWTTHRQGYLYSPIDPQTNKPWPAMPQSFHNLCQRAATAAGYPDFQPDACLINRYAPGAKLSLHQDKDEPDLRAPIVSVSLGLPAIFQFGGLKRNDPLKRLLLEHGDVVVWGGESRLFYHGIQPLKAGFHPLTIDCRYNLTFRQAGKKE
modifications: Fe2+ bound
AlkB-Fe++ blockades not showing ligand-induced transitions [1]: About 30%
time trapped inside the nanopore (Type I ClyA-AS nanopore): several minutes
